Six compounds from US20210003596A1, “CHEMILUMINESCENT ANDROSTENEDIONE CONJUGATES” (Siemens Healthcare Diagnostics Inc., priority 2017, published 2021) can be followed below.

Holding throughout (assay): Competitive chemiluminescent immunoassay (ADVIA Centaur), binding of A4-AE conjugates to antibody on solid phase
Holding throughout (design): species or system sheep; key: a “+” indicates appreciable binding of the specified A4-AE conjugate to the specified antibody; a “−” indicates no appreciable binding was observed

For test [1], the system named is monoclonal androstenedione antibody 4G8. Particulars: binding of A4-AE conjugate to 4G8 antibody, chemiluminescence; lite reagent 20 ng/mL tracer. How it is done:
(§1) Evaluation of A4-AE conjugates was performed using the ADVIA Centaur family of immunoassay analyzers (available from Siemens Healthcare Diagnostics Inc., Tarrytown, N.Y.) using a competitive assay format which utilizes a solid phase reagent and a lite reagent. The lite reagent comprises 20 ng/mL of an A4-AE tracer compound. The solid reagent comprises superparamagnetic beads (Dynabeads® M-270 Streptavidin available from ThermoFisher Scientific) labeled with biotinylated monoclonal anti-A4 antibody. Biotinylated sheep monoclonal androstenedione antibodies 3C3, 3H10, or 4G8 (available from Bioventix, UK) are introduced to the streptavidin coated superparamagnetic beads in order to produce solid phase particles attached to the antibody. Solid phase particles mixed with A4-AE in the absence of A4, results in solid phase binding complexes with the A4-AE compounds. When the […], competition for formation of a binding complex at each antibody occurs between A4 and A4-AE conjugates. […] Therefore, an increase in androstenedione concentration in measured samples correlates with a decrease in chemiluminescence of separated and washed solid phase particles binding complexes. Chemiluminescence of the separated solid phase particle binding complexes is induced by addition of an acidic solution (0.5% Peroxide/0.45% Nitric Acid (vol/vol)) followed by a basic solution (0.25N […]/0.45% ARQUAD® 16-50 (w/v)) and measured. Reagent volumes, concentrations, and assay parameters were otherwise identical in each experiment other than variation of the A4-AE tracer conjugate measured. Samples of androstenedione used in the lite reagent were prepared using a human serum albumin-based matrix (available from Bioresource Technology, Inc.) with the androstenedione sample concentrations shown in FIGS. 2A-2D (ng/mL).
(§2) Chemiluminescence was monitored for a variety of A4-AE conjugates. Table 2 below and the corresponding FIGS. 2A-2D summarize the results of chemiluminescent experiments on several A4-AE conjugates which may be synthesized as described in the indicated Example number. In Table 3 a “+” indicates appreciable binding of the specified A4-AE conjugate to the specified antibody and a “−” indicates no appreciable binding was observed.

For test [2], the system named is monoclonal androstenedione antibody 3C3. Conditions: binding of A4-AE conjugate to 3C3 antibody, chemiluminescence; lite reagent 20 ng/mL tracer. As to the method:
as §1, §2

The test system of test [3] is monoclonal androstenedione antibody 3H10. Conditions: binding of A4-AE conjugate to 3H10 antibody, chemiluminescence; lite reagent 20 ng/mL tracer. How it is done:
as §1, §2

With `Cc1cc(C(=O)NCCC[N+](C)(CCCNC(=O)CON=C2CCC3C4CCC5=CC(=O)CCC5(C)C4CCC23C)CCCS(=O)(=O)[O-])cc(C)c1OC(=O)c1c2ccccc2[n+](CCCS(=O)(=O)[O-])c2ccccc12` (stereo not drawn) [compound 2, A4(17)-CMO-Z-ZAE], in test [1], the 4G8 entry is listed as “−”. Also, in test [2], the 3C3 entry is listed as “−”. Moreover, the 3H10 result in test [3] is recorded as “−”.
As to `Cc1cc(C(=O)NCCC[N+](C)(CCCNC(=O)COC[C@]23CCC(=O)C=C2CCC2C3CC[C@]3(C)C(=O)CCC23)CCCS(=O)(=O)[O-])cc(C)c1OC(=O)c1c2ccccc2[n+](CCCS(=O)(=O)[O-])c2ccccc12` (stereo partly drawn) [compound 3, A4(19)-CME-NH-Z-ZAE], in test [1], the 4G8 entry is listed as “+”. In addition, in test [2], the 3C3 entry is “−”. Also, in test [3], the 3H10 entry was “+”.
Regarding `Cc1cc(C(=O)NCCC[N+](C)(CCCNC(=O)CCC(=O)OC2CC3C4CCC(=O)C4(C)CCC3C3(C)CCC(=O)C=C23)CCCS(=O)(=O)[O-])cc(C)c1OC(=O)c1c2ccccc2[n+](CCCS(=O)(=O)[O-])c2ccccc12` (stereo not drawn) [compound 4, A4(6β)-hemisuccinate-NH-Z-ZAE], the 4G8 result in test [1] is “+”. Besides, the 3C3 entry in test [2] was “+”. Moreover, the 3H10 result in test [3] was “+”.
As for `Cc1cc(C(=O)NCCC[N+](C)(CCCNC(=O)OC2CC3C4CCC(=O)C4(C)CCC3C3(C)CCC(=O)C=C23)CCCS(=O)(=O)[O-])cc(C)c1OC(=O)c1c2ccccc2[n+](CCCS(=O)(=O)[O-])c2ccccc12` (stereo not drawn) [compound 5, A4(6β)-carbamate-NH-Z-ZAE], in test [1], the 4G8 result was “−”. Besides, the 3C3 result in test [2] was “−”. For the same compound, in test [3], the 3H10 result was “−”.
With `Cc1cc(C(=O)NCCC[N+](C)(CCCNC(=O)CCSC2CC3=CC(=O)CCC3(C)C3CCC4(C)C(=O)CCC4C23)CCCS(=O)(=O)[O-])cc(C)c1OC(=O)c1c2ccccc2[n+](CCCS(=O)(=O)[O-])c2ccccc12` (stereo not drawn) [compound 6, A4(7α)-CETE-NH-Z-ZAE], in test [1], the 4G8 result was “+”. For the same compound, the 3C3 result in test [2] was “+”. Also, the 3H10 entry in test [3] is recorded as “+”.
In the case of A4(3)-CMO-Z-ZAE [compound 1], the 4G8 result in test [1] is recorded as “−”. In test [2], the 3C3 entry is on record as “+”. The 3H10 result in test [3] is “+”.
